Experiments:
[1] = test system: human kidney (HK-2) cell line; experiment: In vitro cytotoxicity: MTT assay; format: cell-based; conditions: HK-2, 72 h, concentration of the antibiotic or the antibiotic within the conjugate, mean (n=18)
Description: An MTT assay was used to assess cell viability in a human kidney (HK-2) cell line (72 h incubation). HK-2 cells were seeded into sterile 96-well microtitre plates (1×10^5 cells/mL) in 0.1 mL/well of media (K-SFM) containing L-glutamine, EGF and BPE. They were allowed to adhere for 24 h. The medium was then removed and a range of concentrations of test compounds (0.2 μm filter-sterilized) dissolved in fresh culture media were added to the cells. After a further 67 h incubation, MTT, 3-(4,5-dimethylthiazol-2-yl)-2,5-diphenyltetrazolium bromide, (20 μL of a 5 mg/mL solution in PBS) was added to each well and the cells were incubated for a further 5 h. The medium was then removed and the precipitated formazan crystals solubilized by addition of optical grade DMSO (100 μL) over 30 min. Absorbance was measured at 540 nm using a microtitre plate reader. Cell viability was expressed as a percentage of the viability of untreated control cells. The IC50 values were expressed as mean (n=18).
The IC50 values summarised below represent the concentration of the antibiotic (polymyxin B, colistin sulphate or colistin methanesulphonate (CMS)) or the antibiotic within the conjugate required to inhibit HK2 cells growth by half. OligoG is included as a control.

[2] = test system: V1 Pseudomonas aeruginosa R22; experiment: MIC, broth microdilution, V1; format: cell-based; conditions: n=3, median
Description: (§1) The strains used for susceptibility testing include both culture collection strains and clinical isolates (Table 1). To the extent indicated below, their known relevant genotypes and origin have been described by Khan et al. supra.
(§2) The MICs were determined using the broth microdilution method in accordance with standard guidelines (CLSI 2012). Test organisms were suspended in Mueller Hinton cation adjusted (MH) broth (100 μL, 1-5×10^4 CFU/mL) and incubated in 96-well microtitre plates in serial two-fold dilutions of the test compounds. The MIC was defined as the lowest concentration of test compound that produced no visible growth after 16-20 hours.

[3] = test system: V2 Pseudomonas aeruginosa (301); experiment: MIC, broth microdilution, V2; format: cell-based; conditions: for MIC V2: n=3, median
Description: as §1, §2

[4] = test system: NH57388A Pseudomonas aeruginosa; experiment: MIC, broth microdilution, NH57388A; format: cell-based; conditions: Batch 6; n=3, median
Description: as §1, §2

[5] = test system: V3 Klebsiella pneumoniae; experiment: MIC, broth microdilution, V3; format: cell-based; conditions: for MIC V3: n=3, median
Description: as §1, §2

[6] = test system: V4 Acinetobacter baumanii MDR ACB; experiment: MIC, broth microdilution, V4; format: cell-based; conditions: n=3, median
Description: as §1, §2

[7] = test system: V5 Escherichia coli; experiment: MIC, broth microdilution, V5; format: cell-based; conditions: n=3, median
Description: as §1, §2

[8] = test system: V6 Klebsiella pneumoniae IR25; experiment: MIC, broth microdilution, V6; format: cell-based; conditions: n=3, median
Description: as §1, §2

[9] = test system: V7 Escherichia coli; experiment: MIC, broth microdilution, V7; format: cell-based; conditions: for MIC V7: n=3, median
Description: as §1, §2

[10] = test system: V11 Escherichia coli; experiment: MIC, broth microdilution, V11; format: cell-based; conditions: Batch 6; n=3, median
Description: as §1, §2

[11] = test system: V19 Acinetobacter baumannii; experiment: MIC, broth microdilution, V19; format: cell-based; conditions: for MIC V19: n=3, median
Description: as §1, §2

[12] = test system: Pseudomonas aeruginosa; experiment: MIC quoted for the biofilm study; format: cell-based; conditions: FIG. 9 legend and Example 7; strain not stated
Description: as §2
These experiments investigated whether OligoG-colistin conjugates could inhibit biofilm development more effectively than unconjugated forms of colistin. First, stock solutions of the test compounds were prepared at 1 mg/mL in MH broth and used to prepare a range of antibiotic concentrations (2×MIC-MIC/8) using double dilutions in MH broth across wells of a Greiner glass-bottomed optical 96-well plate (90 μL per well). Sterility (100 μL of MH broth) and growth (90 μL of MH broth plus 10 μL of tested bacterial pathogen) controls were also prepared. Overnight bacterial cultures were grown in TS broth (TSB) and diluted in MH broth to achieve an OD625 of 0.5, then 10 μL was added to the wells. Plates were wrapped in parafilm and incubated for 24 h on a rocker (20 rpm) at 37° C. […] The plate was wrapped in parafilm and kept in the dark until it was analysed by confocal laser scanning microscopy (CLSM), n=2.

[13] = test system: V2 Pseudomonas aeruginosa, V3 Klebsiella pneumoniae, V19 Acinetobacter baumannii, V7 Escherichia coli; experiment: Bacterial growth curves (absorbance at 600 nm, 48 h); format: cell-based
Description: Finally, bacterial growth curves, using the mean of the previously determined MIC values for OligoG-colistin conjugates (amide and ester linked) and colistin sulfate, were used to compare their pharmacokinetic profiles in vitro. For comparison, bacterial growth in the presence of i) OligoG, ii) PRONOVA (high molecular weight alginate) and iii) OligoG plus colistin, both at concentrations corresponding to the amounts present in the corresponding conjugates, was measured. Sterile 96-well microtitre plates were set up for MIC assay as previously described (range: MIC×16 to MIC/16, 0). Plates were then wrapped in parafilm and placed in a microtitre plate reader at 37° C., 5% CO2 and absorbance at 600 nm was measured hourly for 48 h. Experiments were conducted in triplicate and results were presented as mean values (n=3).

[14] = test system: Acinetobacter baumanii (V19); experiment: Two-compartment static dialysis bag PK/PD model, colony counts; format: cell-based; conditions: at MIC (0.25 μg/ml); after 4 h; Batch 6
Excerpt: Studies were undertaken to investigate the PK/PD profiles of the OligoG-colistin conjugates (Batch 6) as compared to non-conjugated colistin in vitro. This is particularly important in nanoscale drug delivery systems where the incorporation of conventional small molecule drugs into nano-sized structures is associated with PK/PD properties that are substantially altered from the original drug. The model system previously described in Azzopardi (supra) was employed.
The unmasking of OligoG-colistin conjugates was simulated using the Azzopardi two-compartment static dialysis bag model under infinite sink conditions (total volume, 20 ml; inner-compartment volume, 5 ml). Dialysis membrane (10,000 g/mol molecular weight cutoff [MWCO]) was pre-soaked for 15 to 30 min in distilled water (dH2O), secured with dialysis clips, and suspended from an injection port to separate the inner compartment (IC) from the outer compartment (OC) in a sterilized 25-ml beaker sealed with a sterile medical-grade polyurethane membrane (Tegaderm).
The model system was prepared under aseptic conditions in a class 2 laminar airflow cabinet and transferred to a shaking incubator set at 37° C. in ambient air and constant orbital agitation at 70 rpm for 48 h. […] Samples were collected from the OC at various time points and characterised by bacterial colony counts (CFU/ml) using Miles and Misra Method.

[15] = test system: TNFα release from HK2 cells; experiment: TNFα release from HK2 cells (ELISA); format: cell-based, human; conditions: 72 h incubation, FIG. 8
Description: As a model inflammatory cytokine involved in polymyxin cyto toxicity, TNFα release from HK2 cells in response to polymyxins and OligoG-polymyxin conjugates was measured by ELISA. HK-2 cells were seeded into sterile 96-well microtitre plates (1×10^5 cells/mL) in 0.1 mL/well of media (K-SFM) containing L-glutamine, EGF and BPE. They were allowed to adhere for 24 h. The medium was then removed and a range of concentrations of test compounds (0.2 μm filter-sterilized) dissolved in fresh culture media were added to the cells. After 72 h incubation, microtiter plates were centrifuged (1500 rpm, 3 min) and the supernatant was transferred into a new 96-well microtitre plate.
TNFα ELISA Assay was carried out according the manufacturer's instructions (Thermo Scientific, ESS0001). Briefly, 100 μL of coating antibody (1:100 dilution in PBS) was added to each well of 96-well microtitre plate. […] Absorbance was measured at 450 nm minus 550 nm.
Standard curves were generated by plotting the average absorbance obtained for each standard concentration on the vertical (Y) axis versus the corresponding human TNFα concentration (pg/mL) on the horizontal (X) axis. Human TNFα amount in each sample was determined by interpolating from the absorbance value (Y-axis) to human TNFα concentration (X-axis) using the standard curve. […]

[16] = test system: Pseudomonas aeruginosa biofilms; experiment: Disruption of biofilm development (CLSM, live/dead stain); format: cell-based; conditions: 2×MIC-MIC/8; 24 h
Description: These experiments investigated whether OligoG-colistin conjugates could inhibit biofilm development more effectively than unconjugated forms of colistin. First, stock solutions of the test compounds were prepared at 1 mg/mL in MH broth and used to prepare a range of antibiotic concentrations (2×MIC-MIC/8) using double dilutions in MH broth across wells of a Greiner glass-bottomed optical 96-well plate (90 μL per well). Sterility (100 μL of MH broth) and growth (90 μL of MH broth plus 10 μL of tested bacterial pathogen) controls were also prepared. Overnight bacterial cultures were grown in TS broth (TSB) and diluted in MH broth to achieve an OD625 of 0.5, then 10 μL was added to the wells. Plates were wrapped in parafilm and incubated for 24 h on a rocker (20 rpm) at 37° C. After a 24 h incubation, the supernatant was carefully removed from all wells and 3 μL of live/dead stain (Live/dead Baclight Bacterial Viability kit; prepared by mixing 1 μL of component A and B in 1 mL of PBS) was added. The plate was wrapped in foil and kept in the dark for 15 min. Lastly, 47 μL of PBS was added to all tested wells. The plate was wrapped in parafilm and kept in the dark until it was analysed by confocal laser scanning microscopy (CLSM), n=2.

Substance | IC50 ([1]; Batch 5) | MIC V1 ([2]; Batch 4) | MIC V1 ([2]; Batch 6) | MIC V2 ([3]; Batch 2) | MIC V2 ([3]; Batch 4) | MIC V2 ([3]; Batch 6) | MIC NH57-388A [4] | MIC V3 ([5]; Batch 2) | MIC V3 ([5]; Batch 4) | MIC V3 ([5]; Batch 6) | MIC V4 ([6]; Batch 4) | MIC V4 ([6]; Batch 6) | MIC V5 ([7]; Batch 2) | MIC V5 ([7]; Batch 4) | MIC V5 ([7]; Batch 6) | MIC V6 ([8]; Batch 4) | MIC V6 ([8]; Batch 6) | MIC V7 ([9]; Batch 4) | MIC V7 ([9]; Batch 6) | MIC V11 [10] | other results
colistin methanesulphonate [CMS] | 0.01397 mg/mL | – | – | – | – | – | – | – | – | – | – | – | – | – | – | – | – | – | – | – | –
colistin sulfate | 0.01098 mg/mL | 0.25 µg/mL | 0.5 µg/mL | 0.25 µg/mL | 0.25 µg/mL | 0.5 µg/mL | 0.25 µg/mL | <0.125 µg/mL | <0.063 µg/mL | 0.125 µg/mL | 0.5 µg/mL | 0.5 µg/mL | 0.02 ng/mL | <16 ng/mL | <8 ng/mL | 0.0625 µg/mL | 0.063 µg/mL | 0.125 µg/mL | 0.25 µg/mL | 0.031 µg/mL | median MIC ([3]; FIG. 1 legend, V2, MIC used for growth curves): 0.063 µg/mL; median MIC ([5]; FIG. 2 legend, V3, MIC used for growth curves): 8 ng/mL; median MIC ([9]; FIG. 4 legend, V7, MIC used for growth curves): 0.063 µg/mL; MIC V19 ([11]; Batch 2): <0.0625 µg/mL; MIC V19 ([11]; Batch 4): <0.016 µg/mL; MIC V19 ([11]; Batch 6): 0.25 µg/mL; median MIC ([11]; FIG. 3 legend, V19, MIC used for growth curves): 2 ng/mL; median MIC [12]: 0.063 µg/mL; bacterial growth / regrowth in growth curves ([13]; FIGS. 1-5, 48 h): more rapid bacterial regrowth; inhibition of bacterial re-growth ([13]; at the median of previously determined MIC values across all batches): shortest inhibition of bacterial re-growth; concentration inhibiting bacterial re-growth for up to 48 h ([13]; up to 48 h): > 8 ×MIC; reduction of viable bacterial counts [14]: ~2 fold; IC50 ([1]; Batch 4): 0.025 mg/mL; TNFα release, adjusted for cell viability [15]: greater TNFα release; effect on biofilms [16]: only a small effect on P. aeruginosa biofilms
polymyxin B | 0.01263 mg/mL | 0.25 µg/mL | 0.25 µg/mL | 0.25 µg/mL | 0.5 µg/mL | 0.5 µg/mL | 0.25 µg/mL | <0.125 µg/mL | 0.125 µg/mL | 0.125 µg/mL | 0.125 µg/mL | 0.125 µg/mL | <0.008 ng/mL | <16 ng/mL | <4 ng/mL | 0.125 µg/mL | 0.125 µg/mL | 0.063 µg/mL | 0.5 µg/mL | 0.063 µg/mL | MIC V19 ([11]; Batch 2): <0.0625 µg/mL; MIC V19 ([11]; Batch 4): 0.031 µg/mL; MIC V19 ([11]; Batch 6): 0.125 µg/mL; IC50 ([1]; Batch 4): 0.012 mg/mL; TNFα release, adjusted for cell viability [15]: greater TNFα release
